Test results: the NIST ThermoML archive (doi:10.1021/je060107n)

Test: mn = molality of the nth substance listed, in mol/kg
Conditions: 101 kPa, Liquid; for mass density: Pycnometric method; for viscosity: Capillary tube (Ostwald / Ubbelohde) method; for speed of sound: Linear variable-path acoustic interferometer

O=[N+]([O-])[O-].O=[N+]([O-])[O-].[Mg+2] [magnesium nitrate] + O
Conditions | mass density [kg/m3] | speed of sound [m/s] | viscosity [mPa·s]
306.45 K, m1 = 0.0145 | 995.89 | – | –
306.5 K, m1 = 0.896 | 1083.6 | – | –
306.5 K, m1 = 3.096 | 1266.4 | – | –
306.65 K, m1 = 0.5931 | 1054 | – | –
306.65 K, m1 = 3.501 | 1294.4 | – | –
306.7 K, m1 = 3.118 | 1267.2 | – | –
306.7 K, m1 = 3.757 | 1310.9 | – | –
306.7 K, m1 = 5.134 | 1397 | – | –
306.75 K, m1 = 4.728 | 1373.4 | – | –
306.8 K, m1 = 3.17 | 1276 | – | –
307.05 K, m1 = 0.6173 | 1056.6 | – | –
307.05 K, m1 = 4.883 | 1379.9 | – | –
307.25 K, m1 = 1.827 | 1167 | – | –
307.45 K, m1 = 4.039 | 1327.9 | – | –
307.6 K, m1 = 2.584 | 1228.1 | – | –
307.65 K, m1 = 4.97 | 1385.7 | – | –
307.7 K, m1 = 3.704 | 1307.2 | – | –
307.8 K, m1 = 2.793 | 1243.4 | – | –
307.9 K, m1 = 1.694 | 1154 | – | –
307.95 K, m1 = 0.2491 | 1020.1 | – | –
308.1 K, m1 = 4.403 | 1351 | – | –
308.15 K, m1 = 0.0145 | – | 1520.8 | 0.7364
308.15 K, m1 = 0.0528 | – | 1522.6 | 0.745
308.15 K, m1 = 0.2491 | – | 1536.2 | 0.7877
308.15 K, m1 = 0.3405 | – | 1539.2 | –
308.15 K, m1 = 0.5931 | – | – | 0.8757
308.15 K, m1 = 0.6173 | – | 1559.2 | –
308.15 K, m1 = 0.896 | – | 1578.7 | –
308.15 K, m1 = 0.9898 | – | 1585.6 | 1.005
308.15 K, m1 = 1.262 | – | 1602.4 | 1.11
308.15 K, m1 = 1.525 | – | 1621.7 | –
308.15 K, m1 = 1.827 | – | 1644.8 | 1.342
308.15 K, m1 = 2.131 | – | 1666.7 | 1.498
308.15 K, m1 = 2.493 | – | 1688 | –
308.15 K, m1 = 2.584 | – | – | 1.777
308.15 K, m1 = 2.793 | – | 1708.9 | –
308.15 K, m1 = 3.096 | – | – | 2.146
308.15 K, m1 = 3.118 | – | 1728.7 | –
308.15 K, m1 = 3.17 | – | 1735.9 | –
308.15 K, m1 = 3.329 | – | – | 2.343
308.15 K, m1 = 3.501 | – | 1752.2 | –
308.15 K, m1 = 3.704 | – | – | 2.692
308.15 K, m1 = 3.757 | – | 1770.5 | –
308.15 K, m1 = 4.039 | – | – | 3.089
308.15 K, m1 = 4.051 | – | 1781.1 | –
308.15 K, m1 = 4.285 | – | 1794.4 | –
308.15 K, m1 = 4.403 | – | 1800.6 | –
308.15 K, m1 = 4.728 | – | – | 4.262
308.15 K, m1 = 4.883 | – | 1826.2 | –
308.15 K, m1 = 4.907 | – | – | 4.654
308.15 K, m1 = 5.134 | – | 1838.4 | –
308.15 K, m1 = 5.282 | – | – | 5.506
308.35 K, m1 = 0.9898 | 1091.9 | – | –
308.4 K, m1 = 1.525 | 1138.7 | – | –
308.45 K, m1 = 1.262 | 1116 | – | –
308.55 K, m1 = 0.3405 | 1028.5 | – | –
308.7 K, m1 = 5.282 | 1404.1 | – | –
308.75 K, m1 = 3.757 | 1309.6 | – | –
308.85 K, m1 = 3.096 | 1265 | – | –
308.85 K, m1 = 4.285 | 1343.6 | – | –
308.95 K, m1 = 3.118 | 1265.8 | – | –
309 K, m1 = 0.896 | 1082.4 | – | –
309.05 K, m1 = 4.728 | 1371.9 | – | –
309.25 K, m1 = 2.131 | 1191 | – | –
309.3 K, m1 = 2.493 | 1218.8 | – | –
309.35 K, m1 = 4.883 | 1378.4 | – | –
309.4 K, m1 = 4.051 | 1326.7 | – | –
309.5 K, m1 = 0.0145 | 994.82 | – | –
309.5 K, m1 = 0.5931 | 1052.8 | – | –
309.5 K, m1 = 0.6173 | 1055.5 | – | –
309.6 K, m1 = 0.0528 | 999.02 | – | –
309.65 K, m1 = 1.827 | 1165.8 | – | –
309.75 K, m1 = 4.97 | 1384.3 | – | –
309.9 K, m1 = 2.584 | 1226.7 | – | –
309.95 K, m1 = 3.704 | 1305.7 | – | –
310.1 K, m1 = 1.694 | 1152.8 | – | –
310.15 K, m1 = 4.403 | 1349.7 | – | –
310.7 K, m1 = 0.9898 | 1090.8 | – | –
310.8 K, m1 = 0.2491 | 1019 | – | –
310.9 K, m1 = 3.096 | 1263.8 | – | –
310.95 K, m1 = 1.262 | 1114.7 | – | –
311 K, m1 = 3.501 | 1291.7 | – | –
311 K, m1 = 3.757 | 1308.1 | – | –
311.05 K, m1 = 3.17 | 1273.3 | – | –
311.2 K, m1 = 3.118 | 1264.5 | – | –
311.25 K, m1 = 2.131 | 1189.9 | – | –
311.25 K, m1 = 4.728 | 1370.6 | – | –
311.35 K, m1 = 5.134 | 1394 | – | –
311.45 K, m1 = 4.883 | 1377.1 | – | –
311.55 K, m1 = 0.896 | 1081.3 | – | –
311.75 K, m1 = 1.827 | 1164.7 | – | –
311.9 K, m1 = 4.039 | 1325 | – | –
311.95 K, m1 = 5.282 | 1402.5 | – | –
312 K, m1 = 4.97 | 1382.9 | – | –
312.1 K, m1 = 0.6173 | 1054.3 | – | –
312.15 K, m1 = 1.694 | 1151.6 | – | –
312.15 K, m1 = 2.793 | 1240.8 | – | –
312.25 K, m1 = 0.0528 | 997.99 | – | –
312.4 K, m1 = 4.403 | 1348.2 | – | –
312.45 K, m1 = 0.0145 | 993.76 | – | –
312.95 K, m1 = 1.525 | 1136.3 | – | –
313.1 K, m1 = 1.262 | 1113.5 | – | –
313.15 K, m1 = 0.0145 | – | 1532.2 | 0.6666
313.15 K, m1 = 0.0528 | – | 1531.9 | 0.6778
313.15 K, m1 = 0.2491 | – | 1544.5 | 0.7155
313.15 K, m1 = 0.3405 | – | 1546 | –
313.15 K, m1 = 0.5931 | – | – | 0.7972
313.15 K, m1 = 0.6173 | – | 1566.4 | –
313.15 K, m1 = 0.896 | – | 1584.7 | –
313.15 K, m1 = 0.9898 | – | 1591.3 | 0.913
313.15 K, m1 = 1.262 | – | 1607.1 | 1.008
313.15 K, m1 = 1.525 | – | 1625.9 | –
313.15 K, m1 = 1.827 | – | 1647.8 | 1.305
313.15 K, m1 = 2.131 | – | 1667.8 | 1.364
313.15 K, m1 = 2.493 | – | 1688.9 | –
313.15 K, m1 = 2.584 | – | – | 1.616
313.15 K, m1 = 2.793 | – | 1709 | –
313.15 K, m1 = 3.096 | 1262.3 | – | 1.947
313.15 K, m1 = 3.118 | – | 1728.1 | –
313.15 K, m1 = 3.17 | – | 1734.7 | –
313.15 K, m1 = 3.329 | – | – | 2.128
313.15 K, m1 = 3.501 | – | 1751.2 | –
313.15 K, m1 = 3.704 | – | – | 2.435
313.15 K, m1 = 3.757 | – | 1767.8 | –
313.15 K, m1 = 4.039 | – | – | 2.798
313.15 K, m1 = 4.051 | – | 1778.4 | –
313.15 K, m1 = 4.285 | – | 1791.3 | –
313.15 K, m1 = 4.403 | – | 1797.9 | –
313.15 K, m1 = 4.728 | – | – | 3.817
313.15 K, m1 = 4.883 | – | 1823.1 | –
313.15 K, m1 = 4.907 | – | – | 4.176
313.15 K, m1 = 5.134 | – | 1834.3 | –
313.15 K, m1 = 5.282 | – | – | 4.924
313.25 K, m1 = 3.118 | 1263.3 | – | –
313.25 K, m1 = 4.285 | 1340.7 | – | –
313.45 K, m1 = 0.2491 | 1017.9 | – | –
313.5 K, m1 = 2.493 | 1216.4 | – | –
313.6 K, m1 = 2.131 | 1188.5 | – | –
313.7 K, m1 = 0.3405 | 1026.4 | – | –
313.7 K, m1 = 4.883 | 1375.5 | – | –
313.8 K, m1 = 0.896 | 1080.2 | – | –
313.8 K, m1 = 4.051 | 1324 | – | –
314.1 K, m1 = 2.793 | 1239.5 | – | –
314.15 K, m1 = 3.704 | 1303 | – | –
314.15 K, m1 = 5.282 | 1401.1 | – | –
314.25 K, m1 = 2.584 | 1224.2 | – | –
314.45 K, m1 = 0.5931 | 1050.6 | – | –
314.45 K, m1 = 0.6173 | 1053.3 | – | –
314.5 K, m1 = 1.694 | 1150.4 | – | –
314.5 K, m1 = 4.403 | 1346.8 | – | –
